Drawing on US10821115B2, “Compounds that inhibit Mcl-1 protein” (priority 2017, dated 2020), this text covers IC50 for 16 molecules.

Each structure is given as a SMILES string. Like-named read-outs stand apart in the source and are kept apart here.

The assay relates to human multiple myeloma cell line, OPM-2. Briefly: Cell viability assay (OPM-2 10 FBS), CellTiter-Glo. It is filed as cell-based. The protocol: Cell viability assay (OPM-2 10 FBS)
The human multiple myeloma cell line, OPM-2, was cultured in complete growth medium containing RPMI 1640 and 10% fetal bovine serum (FBS). Cells were seeded into 384-well plates at 3000 cells/well density in complete growth medium containing 10% FBS, and incubated for 16 h with serially diluted test compounds in a 37° C. incubator with 5% CO2. Cell viability was tested using CellTiter-Glo® assay (Promega, Madison, Wis.) according to the manufacturer recommendations. Luminescence was determined using an EnVision® Multilabel plate reader 25 min after the addition of detection reagent. IC50 values were then calculated with Xlfit using a logistical 4-parameter fit model in GraphPad Prism (GraphPad Software, San Diego, Calif.) or in Genedata Screener® (Genedata, Basel, Switzerland).

Setting [1] is: Homo sapiens, OPM-2, 16 h, read-out: OPM-2 10% FBS IC50 IP, OPM-2 cells, 10% FBS, 16 h incubation.
Where [2] appears, read: read-out: OPM-2 10% FBS IC50 IP, OPM-2 cells, 10% FBS, 16 h, CellTiter-Glo.
Setting [3] is: Homo sapiens, OPM-2, 16 h, read-out: OPM-2 10% FBS IC50 IP, OPM-2 cells, 10% FBS, 16 h, CellTiter-Glo.
Setting [4] is: read-out: OPM-2 10% FBS IC50 IP, OPM-2 cells, 10% FBS, 16 h incubation.

Turning to `CO[C@@]1(CN2CCN(CCS(C)(=O)=O)CC2)/C=C/C[C@H](C)[C@@H](C)S(=O)(=O)NC(=O)c2ccc3c(c2)N(C[C@@H]2CC[C@H]21)C[C@@]1(CCCc2cc(Cl)ccc21)CO3` [Example 81], under setting [1], the IC50 (in general, the concentration that inhibits the measured activity by half) is 112 nM. As for `CO[C@]1(c2cccnc2F)/C=C/C[C@H](C)[C@@H](C)S(=O)(=O)NC(=O)c2ccc3c(c2)N(C[C@@H]2CC[C@H]21)C[C@@]1(CCCc2cc(Cl)ccc21)CO3` [Example 100324, (1S,3′R,6′R,7′R,8′E,11′S,12′R)-6-chloro-7′-(2-fluoro-3-pyridinyl)-7′-methoxy-11′,12′-dimethyl-3,4-dihydro-2H,15′H-spiro[naphthalene-1,22′-[20]oxa[13]thia[1,14]diazatetracyclo [14.7.2.0~3,6~.0~19,24~]pentacosa[8,16,18,24]tetraen]-15′-one 13′,13′-dioxide], under setting [2], the IC50 stood at 1170 nM. `CO[C@]1(c2cccc(F)n2)/C=C/C[C@H](C)[C@@H](C)S(=O)(=O)NC(=O)c2ccc3c(c2)N(C[C@@H]2CC[C@H]21)C[C@@]1(CCCc2cc(Cl)ccc21)CO3` [Example 100340, (1S,3′R,6′R,7′R,8′E,11′S,12′R)-6-chloro-7′-(6-fluoro-2-pyridinyl)-7′-methoxy-11′,12′-dimethyl-3,4-dihydro-2H,15′H-spiro[naphthalene-1,22′-[20]oxa[13]thia[1,14]diazatetracyclo [14.7.2.0~3,6~.0~19,24~]pentacosa[8,16,18,24]tetraen]-15′-one 13′,13′-dioxide]: under setting [3], the 50% inhibitory concentration (IC50) was 308 nM. On to `C[C@@H]1[C@@H](C)CCC[C@@](CO)(CN2CCOCC2)[C@@H]2CC[C@H]2CN2C[C@@]3(CCCc4cc(Cl)ccc43)COc3ccc(cc32)C(=O)NS1(=O)=O` [Example 100341, (1S,3′R,6′R,7′S,11′S,12′R)-6-chloro-7′-(hydroxymethyl)-11′,12′-dimethyl-7′-(4-morpholinylmethyl)-3,4-dihydro-2H,15′H-spiro[naphthalene-1,22′-[20]oxa[13]thia[1,14]diazatetracyclo [14.7.2.0~3,6~.0~19,24~]pentacosa[16,18,24]trien]-15′-one 13′,13′-dioxide], for which, under setting [3], the IC50 came to 1940 nM. As for `CCO[C@]1(CN2CCN(C3COC3)CC2)/C=C/C[C@H](C)[C@@H](CCOC)S(=O)(=O)NC(=O)c2ccc3c(c2)N(C[C@@H]2CC[C@H]21)C[C@@]1(CCCc2cc(Cl)ccc21)CO3` [Example 14, (1S,3′R,6′R,7′R,8′E,11′S,12′R)-6-chloro-7′-ethoxy-12′-(2-methoxyethyl)-11′-methyl-7′-((4-(3-oxetanyl)-1-piperazinyl)methyl)-3,4-dihydro-2H,15′H-spiro[naphthalene-1,22′-[20]oxa[13]thia[1,14]diazatetracyclo[14.7.2.0-3,6˜.0˜19,24˜]pentacosa[8,16,18,24]tetraen]-15′-one 13′,13′-dioxide], the IC50 under setting [1] turned out to be 59 nM. Same read-out and setting: for `CO[C@]1(CN2CCN(CC(F)(F)F)CC2)/C=C/C[C@H](C)[C@@H](C)S(=O)(=O)NC(=O)c2ccc3c(c2)N(C[C@@H]2CC[C@H]21)C[C@@]1(CCCc2cc(Cl)ccc21)CO3` [Example 93, (1S,3′R,6′R,7′R,8′E,11′S,12′R)-6-chloro-7′-methoxy-11′,12′-dimethyl-7′-((4-(2,2,2-trifluoroethyl)-1-piperazinyl)methyl)-3,4-dihydro-2H,15′H-spiro[naphthalene-1,22′-[20]oxa[13]thia[1,14]diazatetracyclo [14.7.2.0~3,6~.0~19,24~]pentacosa[8,16,18,24]tetraen]-15′-one 13′,13′-dioxide] the value was 924 nM. In the case of `CCN(CC)C(=O)C[C@]1(OC)/C=C/C[C@H](C)[C@@H](C)S(=O)(=O)NC(=O)c2ccc3c(c2)N(C[C@@H]2CC[C@H]21)C[C@@]1(CCCc2cc(Cl)ccc21)CO3` [Example 100347, 2-((1S,3′R,6′R,7′S,8′E,11′S,12′R)-6-chloro-7′-methoxy-11′,12′-dimethyl-13′,13′-dioxido-15′-oxo-3,4-dihydro-2H-spiro[naphthalene-1,22′-[20]oxa[13]thia[1,14]diazatetracyclo [14.7.2.0~3,6~.0~19,24~]pentacosa[8,16,18,24]tetraen]-7′-yl)-N,N-diethylacetamide], the IC50 under setting [3] came to 1080 nM. Consider `CO[C@@]1(CN2CCN3CCCC[C@@H]3C2)/C=C/C[C@H](C)[C@@H](Cc2ccccc2)S(=O)(=O)NC(=O)c2ccc3c(c2)N(C[C@@H]2CC[C@H]21)C[C@@]1(CCCc2cc(Cl)ccc21)CO3` (single isomer, unassigned) [Example 104], for which, under setting [4], the concentration for half-maximal inhibition (IC50) stood at 782 nM. Still for that read-out and setting: the figure for `C[C@@H]1[C@@H](C)C/C=C/[C@](O)(CN2CCN3CCOC[C@@H]3C2)[C@@H]2CC[C@H]2CN2C[C@@]3(CCCc4cc(Cl)ccc43)COc3ccc(cc32)C(=O)NS1(=O)=O` [Example 213, (1 S,3′R,6′R,7′R,8′E,11′S,12′R)-6-chloro-7′-((9aS)-hexahydropyrazino[2,1-c][1,4]oxazin-8(1H)-ylmethyl)-7′-hydroxy-11′,12′-dimethyl-3,4-dihydro-2H, 15′H-spiro[naphthalene-1,22′-[20]oxa[13]thia[1,14]diazatetracyclo[14.7.2.0-3,6˜.0˜19,24˜]pentacosa[8,16,18,24]tetraen]-15′-one 13′,13′-dioxide] is 400 nM. Consider `CCO[C@]1(CN2CCN3CCOC[C@@H]3C2)/C=C/C[C@H](C)[C@@H](CCOC)S(=O)(=O)NC(=O)c2ccc3c(c2)N(C[C@@H]2CC[C@H]21)C[C@@]1(CCCc2cc(Cl)ccc21)CO3` [Example 13, (1 S,3′R,6′R,7′R,8′E,11′S,12′R)-6-chloro-7′-ethoxy-7′-((9aS)-hexahydropyrazino[2,1-c][1,4]oxazin-8(1H)-ylmethyl)-12′-(2-methoxyethyl)-11′-methyl-3,4-dihydro-2H,15′H-spiro[naphthalene-1,22′-[20]oxa[13]thia[1,14]diazatetracyclo[14.7.2.0-3,6˜.0˜19,24˜]pentacosa[8,16,18,24]tetraen]-15′-one 13′,13′-dioxide], for which, under setting [1], the 50% inhibitory concentration (IC50) turned out to be 63 nM. As to `CO[C@@]1(CN2CCN3CCN(C(C)=O)C[C@@H]3C2)/C=C/C[C@H](C)[C@@H](C)S(=O)(=O)NC(=O)c2ccc3c(c2)N(C[C@@H]2CC[C@H]21)C[C@@]1(CCCc2cc(Cl)ccc21)CO3` (single isomer, unassigned) [Example 225], the IC50 under setting [4] turned out to be 280 nM. The same measure, in the same setting: for `CO[C@@]1(CN2CCN3CCN(C(C)=O)C[C@@H]3C2)/C=C/C[C@H](C)[C@@H](C)S(=O)(=O)NC(=O)c2ccc3c(c2)N(C[C@@H]2CC[C@H]21)C[C@@]1(CCCc2cc(Cl)ccc21)CO3` (single isomer, unassigned) [Example 226] the value was 49 nM. As for `CCO[C@]1(CN2CCN(C(C)(C)C)CC2)/C=C/C[C@H](C)[C@@H](C)S(=O)(=O)NC(=O)c2ccc3c(c2)N(C[C@@H]2CC[C@H]21)C[C@@]1(CCCc2cc(Cl)ccc21)CO3` [Example 6, (1S,3′R,6′R,7′R,8′E,11′S,12′R)-7′-((4-TERT-BUTYL-1-PIPERAZINYL)METHYL)-6-CHLORO-7′-ETHOXY-11′,12′-DIMETHYL-3,4-DIHYDRO-2H,15′H-SPIRO[NAPHTHALENE-1,22′-[20]OXA[13]THIA[1,14]DIAZATETRACYCLO[14.7.2.0-3,6˜.0˜19,24˜]PENT ACOSA[8,16,18,24]TETRAEN]-15′-ONE 13′,13′-DIOXIDE], the IC50 under setting [1] was 76 nM.

Regarding `CO[C@@]1(CN2CCN3CCCC[C@@H]3C2)/C=C/C[C@H](C)[C@@H](C)S(=O)(=O)NC(=O)c2ccc3c(c2)N(C[C@@H]2CC[C@H]21)C[C@@]1(CCCc2cc(Cl)ccc21)CO3` [Example 197, (1S,3′R,6′R,7′S,8′E,11′S,12′R)-6-chloro-7′-methoxy-11′,12′-dimethyl-7′-((9aR)-octahydro-2H-pyrido[1,2-a]pyrazin-2-ylmethyl)-3,4-dihydro-2H,15′H-spiro[naphthalene-1,22′-[20]oxa[13]thia[1,14]diazatetracyclo [14.7.2.0~3,6~.0~19,24~]pentacosa[8,16,18,24]tetraen]-15′-one 13′,13′-dioxide], the IC50 under setting [1] amounted to 129 nM. For `COC(=O)C(C)(C)NC(=O)C[C@]1(OC)/C=C/C[C@H](C)[C@@H](C)S(=O)(=O)NC(=O)c2ccc3c(c2)N(C[C@@H]2CC[C@H]21)C[C@@]1(CCCc2cc(Cl)ccc21)CO3` [Example 100544, methyl N-(((1S,3′R,6′R,7′S,8′E,11′S,12′R)-6-chloro-7′-methoxy-11′,12′-dimethyl-13′,13′-dioxido-15′-oxo-3,4-dihydro-2H-spiro[naphthalene-1,22′-[20]oxa[13]thia[1,14]diazatetracyclo [14.7.2.0~3,6~.0~19,24~]pentacosa[8,16,18,24]tetraen]-7′-yl)acetyl)-2-methylalaninate], under setting [3], the IC50 came out at 306 nM. On to `CO[C@@]1(CC(=O)N(C)C)/C=C/C[C@H](C)[C@@H](C)S(=O)(=O)NC(=O)c2ccc3c(c2)N(C[C@@H]2CC[C@H]21)C[C@@]1(CCCc2cc(Cl)ccc21)CO3` [Example 100135, 2-((1S,3′R,6′R,7′S,8′E,11′S,12′R)-6-chloro-7′-methoxy-11′,12′-dimethyl-13′,13′-dioxido-15′-oxo-3,4-dihydro-2H-spiro[naphthalene-1,22′-[20]oxa[13]thia[1,14]diazatetracyclo [14.7.2.0~3,6~.0~19,24~]pentacosa[8,16,18,24]tetraen]-7′-yl)-N,N-dimethylacetamide], for which the IC50 under setting [2] was found to be 161 nM.
